{"source": "patent US5462933A", "about": "“Modified bile acid conjugates, and their use as pharmaceuticals” (Hoechst Aktiengesellschaft, priority 1989, dated 1995)", "assay": "In vivo perfused liver: absorption from portal vein blood and excretion into the bile", "design": "species or system rat", "details": "after W-X-G (Example 67)", "experimental": "In order to investigate a selective absorption of bile acid derivatives into the liver and their hepatotropic action, the appropriate derivatives were injected as a bolus into a mesenteric vein of anesthetized rats and the excretion of these derivatives and the corresponding active compounds or active compound metabolites into the bile was analysed.\nMale Sprague-Dawley rats (300-500 g bodyweight) had their food withdrawn and received water ad libitum. After tracheotomy, the abdomen was opened by median section under urethane anesthesia ([…] i.m. urethane 30%). The pylorus was ligated and the bile duct was cannulated by advancing a polyethylene tube (d=0.05 mm) up to the liver and the bile was drained. The volume of secretion was measured at 15 minute intervals. After a preliminary period of 60 minutes, the substances (0.5 ml of a 1 mM solution in 0.9% NaCl solution) were administered into a mesenteric vein in the course of 30 sec and the bile was collected at prestated time intervals (2, 4, 6, 8, 10, 15, 20, 30, 40, 50, 60, 70, 80, 90, 100, 110 and 120 min). The bile acid derivative was administered first, and the appropriate active compound was administered after a collection period of 2 hours. 120 min after administration of test substance, the bladder volume was measured and the urine was also collected. The bile and urine samples were stored on ice during the experiment and then deep-frozen.\nEach 10 μl bile sample was applied to TLC plates (10×20 cm, silica gel 60 specific layer thickness 0.25 mm, No. 37581 Riedel de Haen, Seelze, Federal Republic of Germany) using Microcaps (Drummond, Broomall, USA) and the thin-layer plates were dried in the air for 20 min.\nThe plates were developed in the following mobile phases: Substance Mobile phase\nThe constituents of the mobile phases were bought from the usual manufacturers in the highest possible purity grade. After developing and drying the plates, the distribution of the active compounds and the bile acid derivatives, or their metabolites, was determined by densitometry (CD 50 densitometer, DESAGA; Heidelberg). Detection was carried out in reflection mode with linear sampling at the wavelengths 252 nm (chlorambucil/chlorambucil conjugate) or 260 nm (remaining substances).\nIn order to evaluate the chromatograms, the relative intensity of the bile acid derivatives, the active compounds or the active compound metabolites on a chromatogram was given in surface area units.", "data": [{"smiles": "C[C@H](CCC(=O)NCCS(=O)(=O)O)[C@H]1CC[C@H]2[C@@H]3[C@H](O)C[C@@H]4C[C@@H](OCCNC(=O)CCCc5ccc(N(CCCl)CCCl)cc5)CC[C@]4(C)[C@H]3C[C@H](O)[C@]12C", "note": "[Example 67]", "values": [{"measurement": "(2) Conc. W-X-G in bile", "setting": "bile at 2 min", "value": 1207, "unit": "surface area units"}, {"measurement": "Total (1) + (2)", "setting": "bile at 2 min", "value": 1207, "unit": "surface area units"}, {"measurement": "(2) Conc. W-X-G in bile", "setting": "bile at 4 min", "value": 17803, "unit": "surface area units"}, {"measurement": "Total (1) + (2)", "setting": "bile at 4 min", "value": 17803, "unit": "surface area units"}, {"measurement": "(2) Conc. W-X-G in bile", "setting": "bile at 6 min", "value": 21762, "unit": "surface area units"}, {"measurement": "Total (1) + (2)", "setting": "bile at 6 min", "value": 21762, "unit": "surface area units"}, {"measurement": "(2) Conc. W-X-G in bile", "setting": "bile at 8 min", "value": 27280, "unit": "surface area units"}, {"measurement": "Total (1) + (2)", "setting": "bile at 8 min", "value": 27280, "unit": "surface area units"}, {"measurement": "(2) Conc. W-X-G in bile", "setting": "bile at 10 min", "value": 27346, "unit": "surface area units"}, {"measurement": "Total (1) + (2)", "setting": "bile at 10 min", "value": 27346, "unit": "surface area units"}, {"measurement": "(2) Conc. W-X-G in bile", "setting": "bile at 15 min", "value": 16673, "unit": "surface area units"}, {"measurement": "Total (1) + (2)", "setting": "bile at 15 min", "value": 16673, "unit": "surface area units"}, {"measurement": "(2) Conc. W-X-G in bile", "setting": "bile at 20 min", "value": 10748, "unit": "surface area units"}, {"measurement": "Total (1) + (2)", "setting": "bile at 20 min", "value": 10748, "unit": "surface area units"}, {"measurement": "(2) Conc. W-X-G in bile", "setting": "bile at 30 min", "value": 5375, "unit": "surface area units"}, {"measurement": "Total (1) + (2)", "setting": "bile at 30 min", "value": 5375, "unit": "surface area units"}, {"measurement": "(2) Conc. W-X-G in bile", "setting": "bile at 40 min", "value": 1273, "unit": "surface area units"}, {"measurement": "Total (1) + (2)", "setting": "bile at 40 min", "value": 1273, "unit": "surface area units"}, {"measurement": "(2) Conc. W-X-G in bile", "setting": "bile at 50 min", "value": 828, "unit": "surface area units"}, {"measurement": "Total (1) + (2)", "setting": "bile at 50 min", "value": 828, "unit": "surface area units"}, {"measurement": "(2) Conc. W-X-G in bile", "setting": "bile at 60 min", "value": 633, "unit": "surface area units"}, {"measurement": "Total (1) + (2)", "setting": "bile at 60 min", "value": 633, "unit": "surface area units"}, {"measurement": "(2) Conc. W-X-G in bile", "setting": "bile at 70 min", "value": 826, "unit": "surface area units"}, {"measurement": "Total (1) + (2)", "setting": "bile at 70 min", "value": 826, "unit": "surface area units"}, {"measurement": "(2) Conc. W-X-G in bile", "setting": "bile at 80 min", "value": 635, "unit": "surface area units"}, {"measurement": "Total (1) + (2)", "setting": "bile at 80 min", "value": 635, "unit": "surface area units"}, {"measurement": "(2) Conc. W-X-G in bile", "setting": "bile at 90 min", "value": 638, "unit": "surface area units"}, {"measurement": "Total (1) + (2)", "setting": "bile at 90 min", "value": 638, "unit": "surface area units"}, {"measurement": "(2) Conc. W-X-G in bile", "setting": "bile at 100 min", "value": 559, "unit": "surface area units"}, {"measurement": "Total (1) + (2)", "setting": "bile at 100 min", "value": 559, "unit": "surface area units"}, {"measurement": "(2) Conc. W-X-G in bile", "setting": "bile at 110 min", "value": 408, "unit": "surface area units"}, {"measurement": "Total (1) + (2)", "setting": "bile at 110 min", "value": 408, "unit": "surface area units"}, {"measurement": "(2) Conc. W-X-G in bile", "setting": "bile at 120 min", "value": 383, "unit": "surface area units"}, {"measurement": "Total (1) + (2)", "setting": "bile at 120 min", "value": 383, "unit": "surface area units"}]}]}
